Assay results taken from patent US20240018145A1, “[…]-DEPENDENT EN[…] TREATING OR […]” (priority 2020, published 2024).

What follows are compounds tested on FLU A (PR/8/34) (assay: Flu A Neuraminidase Antiviral Assay). Settings: not given.
Format: cell-based
For `O=C1c2c(O)c(=O)ccn2N2C(c3ccccc3)CCCC2N1CC1CC1` (single isomer, unassigned) [Compound 56C, 5-(cyclopropylmethyl)-7-hydroxy-1-phenyl-1,2,3,4,4a,5-hexahydrodipyrido[1,2-b:2′,1′-f][1,2,4]triazine-6,8-dione], the EC50 was > 8100 nM. `CN1C(=O)c2c(O)c(=O)ccn2N2C1CCCC2(C)c1ccc(F)cc1` (single isomer, unassigned) [Compound 26B, 1-(4-fluorophenyl)-7-hydroxy-1,5-dimethyl-1,2,3,4,4a,5-hexahydrodipyrido[1,2-b:2′,1′-f][1,2,4]triazine-6,8-dione] was tested, and the EC50 was 1800 nM. In the case of `CN1C(=O)c2c(O)c(=O)ccn2N2C(c3ccccc3)C(c3cc(F)c(F)cc3F)CCC12` (single isomer, unassigned) [Compound 86D, 7-hydroxy-5-methyl-1-phenyl-2-(2,4,5-trifluorophenyl)-1,2,3,4,4a,5-hexahydrodipyrido[1,2-b:2′,1′-f][1,2,4]triazine-6,8-dione], the EC50 is reported as > 810 nM. `CCCC1CCC2N(C)C(=O)c3c(O)c(=O)ccn3N2C1c1ccccc1Cl` (stereo not drawn) [Compound 65A, 1-(2-chlorophenyl)-7-hydroxy-5-methyl-2-propyl-1,2,3,4,4a,5-hexahydrodipyrido[1,2-b:2′,1′-f][1,2,4]triazine-6,8-dione] showed an EC50 of 396 nM. Compound `CN1C(=O)c2c(O)c(=O)ccn2N2C1CCCC2(C)c1ccccc1F` (single isomer, unassigned) [Compound 24B, 1-(2-fluorophenyl)-7-hydroxy-1,5-dimethyl-1,2,3,4,4a,5-hexahydrodipyrido[1,2-b:2′,1′-f][1,2,4]triazine-6,8-dione] has an EC50 of 1240 nM. `CN1C(=O)c2c(O)c(=O)ccn2N2C(c3c(F)cccc3F)C(CC(F)(F)F)CCC12` (single isomer, unassigned) [Compound 123C, 1-(2,6-difluorophenyl)-7-hydroxy-5-methyl-2-(2,2,2-trifluoroethyl)-1,2,3,4,4a,5-hexahydrodipyrido[1,2-b:2′,1′-f][1,2,4] triazine-6,8-dione] was tested, and the EC50 was > 8100 nM. `CCc1ccccc1C1C(CC(F)(F)F)CCC2N(C)C(=O)c3c(O)c(=O)ccn3N12` (single isomer, unassigned) [Compound 112A, 1-(2-ethylphenyl)-7-hydroxy-5-methyl-2-(2,2,2-trifluoroethyl)-1,2,3,4,4a,5-hexahydrodipyrido[1,2-b:2′,1′-f][1,2,4]triazine-6,8-dione] showed an EC50 of 3.7 nM. With `Cc1cc(=O)c(O)c2n1N1C(c3ccccc3)C(CC(F)(F)F)CCC1N(C)C2=O` (single isomer, unassigned) [Compound 132D, 7-hydroxy-5,10-dimethyl-1-phenyl-2-(2,2,2-trifluoroethyl)-1,2,3,4,4a,5-hexahydrodipyrido[1,2-b:2′,1′-f][1,2,4]triazine-6,8-dione] the EC50 was > 810 nM. Compound `Cc1ccccc1C1C(CC2CC2(F)F)CCC2N(C)C(=O)c3c(O)c(=O)ccn3N12` (single isomer, unassigned) [Compound 88C] has an EC50 of 4 nM.

Same assay, conditions: MDCK, 48 h
In the case of `CN1C(=O)c2c(O)c(=O)ccn2N2C(c3ccccc3)CCC12` (single isomer, unassigned) [Compound 60A, 6-hydroxy-4-methyl-1-phenyl-2,3,3a,4-tetrahydro-1H-pyrido[2,1-f]pyrrolo[1,2-b][1,2,4]triazine-5,7-dione], the EC50 is reported as > 8100 nM. `COCCC1CCC2N(C)C(=O)c3c(O)c(=O)ccn3N2C1c1ccccc1Cl` (stereo not drawn) [Compound 67, 1-(2-chlorophenyl)-7-hydroxy-2-(2-methoxyethyl)-5-methyl-1,2,3,4,4a,5-hexahydrodipyrido[1,2-b:2′,1′-f][1,2,4]triazine-6,8-dione] gave an EC50 of 16.4 nM. With `CC(C)CC1CC(c2ccccc2)N2C(C1)N(C)C(=O)c1c(O)c(=O)ccn12` (single isomer, unassigned) [Compound 130A, 7-hydroxy-3-isobutyl-5-methyl-1-phenyl-1,2,3,4,4a,5-hexahydrodipyrido[1,2-b:2′,1′-f][1,2,4]triazine-6,8-dione] the EC50 was > 8100 nM.
